The first experiment has as its target T1, P2X7 receptor (Homo sapiens, UniProt Q99572).
T1 construct: host or cells: SH-SY5Y
T1 sequence (Q99572 1-595): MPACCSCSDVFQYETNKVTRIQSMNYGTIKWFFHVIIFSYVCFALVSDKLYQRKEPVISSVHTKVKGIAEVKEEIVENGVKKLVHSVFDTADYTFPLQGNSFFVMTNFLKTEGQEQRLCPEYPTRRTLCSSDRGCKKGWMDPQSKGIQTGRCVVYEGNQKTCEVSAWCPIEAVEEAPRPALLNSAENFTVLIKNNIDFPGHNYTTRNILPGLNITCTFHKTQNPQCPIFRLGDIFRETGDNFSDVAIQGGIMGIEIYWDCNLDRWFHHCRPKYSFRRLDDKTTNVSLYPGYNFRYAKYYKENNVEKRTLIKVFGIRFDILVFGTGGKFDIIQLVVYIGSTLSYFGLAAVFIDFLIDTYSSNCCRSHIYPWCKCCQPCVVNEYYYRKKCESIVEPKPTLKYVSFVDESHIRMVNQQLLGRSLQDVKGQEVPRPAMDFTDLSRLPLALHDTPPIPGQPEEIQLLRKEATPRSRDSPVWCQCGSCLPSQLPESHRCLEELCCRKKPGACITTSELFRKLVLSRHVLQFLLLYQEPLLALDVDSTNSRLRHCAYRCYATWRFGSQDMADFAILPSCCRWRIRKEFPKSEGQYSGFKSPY
Put plainly: P2X7 calcium mobilization assay, high throughput, antagonist activity (Example 4A). It is filed as cell-based.
Conditions: not given
A digest of the protocol: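 Cells plated at 100,000/well the day before were dye-loaded for 1 h, then incubated 1 h at room temperature with test compound before agonist-triggered calcium mobilization was read on FLIPR Tetra. Maximum RFU was corrected by subtracting the no-agonist control and related to the agonist-control response.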
(A change in cytosolic calcium serves as a functional read-out for many receptors and channels.)
For `CC(C)(CO)NC(=O)c1cn2c(C(=O)NC[C@@H]3CC[C@H]4C[C@@H]3C4(C)C)cccc2n1` [Compound 520, 5-N-{[(1S,2R,5S)-6,6-dimethylbicyclo[3.1.1]hept-2-yl]methyl}-2-N-(2-hydroxy-1,1-dimethylethyl)imidazo[1,2-a]pyridine-2,5-dicarboxamide], the IC50 (as a rule, the concentration that inhibits the measured activity by half) was less than 2000 nM.

The experiment is the same for the next values; noted with them: 50% decrease in the fluorescence response of cells exposed to 80 μM 2′(3′)-O-(4-benzoyl-benzoyl)adenosine 5′-triphosphate; Example 4A; read-out: IC50.
With `CC(C)C[C@@H](NC(=O)c1cn2c(C(=O)NC[C@@H]3CC[C@H]4C[C@@H]3C4(C)C)cccc2n1)C(N)=O` [Compound 514, 2-N-[(1R)-1-carbamoyl-3-methylbutyl]-5-N-{[(1S,2R,5S)-6,6-dimethylbicyclo[3.1.1]hept-2-yl]methyl} imidazo[1,2-a]pyridine-2,5-dicarboxamide], the IC50 is less than 2000 nM. Same read-out and setting: the figure for `CC(C)C[C@H](NC(=O)c1cn2c(C(=O)NC[C@@H]3CC[C@H]4C[C@@H]3C4(C)C)cccc2n1)C(N)=O` [Compound 515, 2-N-[(1S)-1-carbamoyl-3-methylbutyl]-5-N-{[(1S,2R,5S)-6,6-dimethylbicyclo [3.1.1]hept-2-yl]methyl} imidazo[1,2-a]pyridine-2,5-dicarboxamide] is less than 2000 nM. Still for that read-out and setting: the same measure for `CC1(C)[C@H]2CC[C@@H](CNC(=O)c3cccc4nc(C(=O)NC5(CO)CCCC5)cn34)[C@@H]1C2` [Compound 518, 5-N-{[(1S,2R,5S)-6,6-dimethylbicyclo[3.1.1]hept-2-yl]methyl}-2-N-[1-(hydroxymethyl)cyclopentyl] imidazo[1,2-a]pyridine-2,5-dicarboxamide]: less than 2000 nM; for `CC1(C)[C@H]2CC[C@@H](CNC(=O)c3cccc4nc(C(=O)N[C@@H]5CCCC[C@H]5O)cn34)[C@@H]1C2` [Compound 519, 5-N-{[(1S,2R,5S)-6,6-dimethylbicyclo[3.1.1]hept-2-yl]methyl}-2-N-[(1R,2R)-2-hydroxycyclohexyl] imidazo[1,2-a]pyridine-2,5-dicarboxamide]: less than 2000 nM. `CC(C)(C)[C@@H](CO)NC(=O)c1cn2c(C(=O)NC[C@@H]3CC[C@H]4C[C@@H]3C4(C)C)cccc2n1` [Compound 522, 5-N-{[(1S,2R,5S)-6,6-dimethylbicyclo[3.1.1]hept-2-yl]methyl}-2-N-[(1S)-1-(hydroxymethyl)-2,2-dimethylpropyl] imidazo[1,2-a] pyridine-2,5-dicarboxamide]: the IC50 was less than 2000 nM. On to `CC(C)(C)C(O)CNC(=O)c1cn2c(C(=O)NC[C@@H]3CC[C@H]4C[C@@H]3C4(C)C)cccc2n1` (stereo partly drawn) [Compound 528, 5-N-{[(1S,2R,5S)-6,6-dimethylbicyclo[3.1.1]hept-2-yl]methyl}-2-N-(2-hydroxy-3,3-dimethylbutyl)imidazo [1,2-a]pyridine-2,5-dicarboxamide], for which the IC50 was less than 2000 nM.

Regarding `O=C(NCC12CC3CC(CC(C3)C1)C2)c1cccc2nc(C(=O)N3CCOCC3)cn12` [Compound 529, N-(adamantan-1-ylmethyl)-2-(morpholin-4-ylcarbonyl)imidazo[1,2-a]pyridine-5-carboxamide], the IC50 is less than 2000 nM. The same measure, in the same setting: the same measure for `Cn1ccnc1SCc1cn2c(C(=O)NCC34CC5CC(CC(C5)C3)C4)cccc2n1` [Compound 530, N-(adamantan-1-ylmethyl)-2-{[(1-methyl-1H-imidazol-2-yl)thio]methyl}imidazo [1,2-a]pyridine-5-carboxamide]: less than 2000 nM; for `O=C(NCC12CC3CC(CC(C3)C1)C2)c1cccc2nc(CC(=O)N3CC[C@@H](O)C3)cn12` [Compound 531, N-(adamantan-1-ylmethyl)-2-{2-[(3R)-3-hydroxypyrrolidin-1-yl]-2-oxoethyl}imidazo[1,2-a]pyridine-5-carboxamide]: less than 2000 nM; for `Cn1nnnc1SCc1cn2c(C(=O)NCC34CC5CC(CC(C5)C3)C4)cccc2n1` [Compound 532, N-(adamantan-1-ylmethyl)-2-{[(1-methyl-1H-tetrazol-5-yl)thio]methyl}imidazo [1,2-a]pyridine-5-carboxamide]: less than 2000 nM. Same read-out and setting: the same measure for `CCOC(=O)Cc1cn2c(C(=O)NCC(CC(C)C)c3cccnc3)cccc2n1` (centres unmarked) [Compound 533, ethyl {5-[(4-methyl-2-pyridin-3-ylpentyl)carbamoyl]imidazo[1,2-a]pyridin-2-yl}acetate]: less than 2000 nM. As for `CCNCc1cn2c(C(=O)NCC34CC5CC(CC(C5)C3)C4)cccc2n1` [Compound 534, N-(adamantan-1-ylmethyl)-2-[(ethylamino)methyl] imidazo[1,2-a]pyridine-5-carboxamide], the IC50 is less than 2000 nM.

In the case of `CC(CO)c1cn2c(C(=O)NCC34CC5CC(CC(C5)C3)C4)cccc2n1` (centres unmarked) [Compound 535, N-(adamantan-1-ylmethyl)-2-(2-hydroxy-1-methylethyl)imidazo[1,2-a]pyridine-5-carboxamide], the IC50 was less than 2000 nM.

Turning to `O=C(NCC12CC3CC(CC(C3)C1)C2)c1cccc2nc(CC(=O)N3CCSCC3)cn12` [Compound 536, N-(adamantan-1-ylmethyl)-2-(2-oxo-2-thiomorpholin-4-ylethyl)imidazo[1,2-a]pyridine-5-carboxamide], the IC50 was less than 2000 nM.

Regarding `O=C(NCC12CC3CC(CC(C3)C1)C2)c1cccc2nc(CN3CCS(=O)(=O)CC3)cn12` [Compound 537, N-(adamantan-1-ylmethyl)-2-[(1,1-dioxidothiomorpholin-4-yl)methyl]imidazo[1,2-a]pyridine-5-carboxamide], the IC50 is less than 2000 nM. Same read-out and setting: the figure for `O=C(NCC12CC3CC(CC(C3)C1)C2)c1cccc2nc(CN3C[C@H](O)CC3=O)cn12` [Compound 538, N-(adamantan-1-ylmethyl)-2-{[(4R)-4-hydroxy-2-oxopyrrolidin-1-yl]methyl}imidazo[1,2-a]pyridine-5-carboxamide] is less than 2000 nM; for `CC(C)(CO)c1cn2c(C(=O)NCC34CC5CC(CC(C5)C3)C4)cccc2n1` [Compound 539, N-(adamantan-1-ylmethyl)-2-(2-hydroxy-1,1-dimethylethyl)imidazo [1,2-a]pyridine-5-carboxamide] it is less than 2000 nM; for `O=C(CC12CC3CC(CC(C3)C1)C2)Nc1cccc2nc(CSc3nnc[nH]3)cn12` [Compound 540, 2-adamantan-1-yl-N-{2-[(4H-1,2,4-triazol-3-ylthio)methyl]imidazo [1,2-a]pyridin-5-yl}acetamide] it is less than 2000 nM. On the same count and under the same terms, the same measure for `CCOC(=O)C(=O)N(CC)Cc1cn2c(C(=O)NCC34CC5CC(CC(C5)C3)C4)cccc2n1` [Compound 541, ethyl [({5-[(adamantan-1-ylmethyl)carbamoyl]imidazo[1,2-a]pyridin-2-yl}methyl)(ethyl)amino] (oxo)acetate]: less than 2000 nM; for `O=C(NCC12CC3CC(CC(C3)C1)C2)c1cccc2nc(CSc3ncc[nH]3)cn12` [Compound 542, N-(adamantan-1-ylmethyl)-2-[(1H-imidazol-2-ylthio)methyl] imidazo [1,2-a]pyridine-5-carboxamide]: less than 2000 nM; for `O=C(O)CCNC(=O)c1cn2c(C(=O)NCC34CC5CC(CC(C5)C3)C4)cccc2n1` [Compound 544, N-({5-[(adamantan-1-ylmethyl)carbamoyl)imidazo[1,2-a]pyridin-2-yl}carbonyl)-beta-alanine]: less than 2000 nM. In the case of `CC(C)CC(CNC(=O)c1cccc2nc(CCO)cn12)c1cccnc1` (centres unmarked) [Compound 545, 2-(2-hydroxyethyl)-N-(4-methyl-2-pyridin-3-ylpentyl)imidazo[1,2-a]pyridine-5-carboxamide], the IC50 was less than 2000 nM.

For the molecule `CCN(Cc1cn2c(C(=O)NCC34CC5CC(CC(C5)C3)C4)cccc2n1)C(=O)C(=O)O` [Compound 546, [({5-[(adamantan-1-ylmethyl)carbamoyl]imidazo[1,2-a]pyridin-2-yl}methyl)(ethyl)amino] (oxo)acetic acid], the IC50 was less than 2000 nM.

`CC(C(=O)O)c1cn2c(C(=O)NCC34CC5CC(CC(C5)C3)C4)cccc2n1` (centres unmarked) [Compound 547, 2-{5-[(adamantan-1-ylmethyl)carbamoyl]imidazo[1,2-a]pyridin-2-yl} propanoic acid]: the IC50 is less than 2000 nM. Still for that read-out and setting: the figure for `CCN(Cc1cn2c(C(=O)NCC34CC5CC(CC(C5)C3)C4)cccc2n1)C(=O)c1ncc[nH]1` [Compound 551, N-(adamantan-1-ylmethyl)-2-{[ethyl(1H-imidazol-2-ylcarbonyl)amino]methyl}imidazo[1,2-a]pyridine-5-carboxamide] is less than 2000 nM; for `CCN(Cc1cn2c(C(=O)NCC34CC5CC(CC(C5)C3)C4)cccc2n1)C(=O)c1nnc[nH]1` [Compound 552, N-(adamantan-1-ylmethyl)-2-{[ethyl(4H-1,2,4-triazol-3-ylcarbonyl)amino]methyl}imidazo[1,2-a]pyridine-5-carboxamide] it is less than 2000 nM. On the same count and under the same terms, the figure for `CCN(CCO)Cc1cn2c(C(=O)NCC34CC5CC(CC(C5)C3)C4)cccc2n1` [Compound 553, N-(adamantan-1-ylmethyl)-2-{[ethyl(2-hydroxyethyl)amino]methyl}imidazo[1,2-a]pyridine-5-carboxamide] is less than 2000 nM; for `O=C(NCC12CC3CC(CC(C3)C1)C2)c1cccc2nc(C[S+]([O-])c3nnc[nH]3)cn12` (centres unmarked) [Compound 554, N-(adamantan-1-ylmethyl)-2-[(4H-1,2,4-triazol-3-ylsulfinyl)methyl]imidazo [1,2-a]pyridine-5-carboxamide] it is less than 2000 nM.

The values above are taken from patent US8431593B2, “Heteroaryl amide derivatives” (H. Lundbeck A/S, priority 2006, dated 2013).
